Counter-ions that a name gives are not always drawn. Like-named read-outs stand apart in the source and are kept apart here.
How the values were obtained:
[1] = Test Example 4: plasma and brain homogenate concentrations after oral and intraoral administration; type: in vivo, male SD rats; conditions: rats
Method: The (−) isomer of the present compound (hydrochloride) was administered forcedly orally in a dose of 10 mg/kg (10 mL/kg of 1 mg/mL aqueous solution) to fasted male SD rats, and 5, 15, 30, 60 and 120 minutes after administration, whole blood was collected from the abdominal aorta.
The (−) isomer of the present compound (hydrochloride) was dropped in a dose of 1 mg/kg (0.1 mL/kg of 10 mg/mL aqueous solution) into the oral cavity of each fasted male SD rat anesthetized under ether. In the case of the powder preparation, the preparation which had been weighed so as to be in a dose of 1 mg/kg was placed beneath the tongue of each rat under anesthesia. In either case, the rats were left for 1 minute under anesthesia and then returned to cages, and 5, 15, 30, 60 and 120 minutes after administration, whole blood was collected from the abdominal aorta.
The blood collected from each rat was treated in the same manner as in Test Example 1. After blood collection, blood in the body of each rat was perfused with refrigerated physiological saline, and the cerebrum was excised therefrom. The cerebrum was cut thin with a knife and homogenized in 5 mL physiological saline added per gram of the tissues. 0.5 mL acetonitrile was added to 0.5 mL of the brain homogenate which was then stirred by means of a test tube mixer and centrifuged at 10,000 rpm for 5 minutes, to give a supernatant.
The concentrations of the compound in the plasma and in the brain homogenate were measured by LC/MS/MS. Simultaneously, the metabolites were quantitatively determined by using metabolite standards.

[2] = Test Example 1: plasma level after single intravenous, subcutaneous and oral administration; type: in vivo, male SD rats; conditions: for bioavailability / Cmax / Tmax / AUC: rat, plasma, fasted male SD rats; for bioavailability: read-out: F (bioavailability); for AUC: trapezoidal method
Method: 0.5 mg/kg of the (−) isomer of the present compound (hydrochloride) (1 mL/kg of 0.5 mg/mL aqueous solution in physiological saline) was administered to the tail vein of each of male SD rats fasted since the previous day, and 5 minutes, 10 minutes, 20 minutes, 30 minutes, 45 minutes, 1 hour, 1.5 hours, 2 hours, 3 hours, 4 hours, and 6 hours after administration, whole blood was collected from the abdominal aorta.
(§1) 1 mg/kg of the (−) isomer of the present compound (hydrochloride) (5 mL/kg of 0.2 mg/mL aqueous solution) was administered subcutaneously to the back of the neck of each of male SD rats fasted since the previous day, and 5 minutes, 10 minutes, 20 minutes, 30 minutes, 1 hour, 1.5 hours, 2 hours, 3 hours, 4 hours, 6 hours, 8 hours and 10 hours after administration, whole blood was collected from the abdominal aorta.
as §1, with “10 mg/kg” for “1 mg/kg”, “(hydrochloride) (10” for “(hydrochloride) (5”, “of 1” for “of 0.2”, “administered forcedly orally” for “administered subcutaneously”, “to” for “to the back of the neck of each of”
The blood collected from each rat was transferred to a blood collecting tube containing 2Na EDTA, then sufficiently mixed by turning the tube upside down, and then centrifuged at 3,000 rpm for 10 minutes, and the obtained plasma was recovered. The plasma was freeze-preserved at −20° C. until analysis. The plasma level of the compound was measured by high performance liquid chromatography (HPLC). As a pharmacokinetic parameter, AUCO-t (area under the blood level-time curve, hereinafter referred to as “AUC”) was calculated by a trapezoidal method, and Cmax (maximum blood concentration) and tmax (time-to-maximum blood concentration) were determined from actual measurement values.

[3] = intraoral 1 mg/kg vs oral 10 mg/kg

CCCNC(CCC)Cc1cc2ccccc2o1 (single isomer, unassigned; (-)) [(−) isomer of the present compound (hydrochloride), (−)-1-(benzofuran-2-yl)-2-propylaminopentane]
blood concentration in intraoral administration compared with oral administration ([1]; intraoral 1 mg/kg (aqueous solution, powder preparation) vs oral 10 mg/kg): equal to or higher than that in the oral administration
metabolites in intraoral administration compared with oral administration [1, 3]: lower metabolites
transferability of the compound to the brain (concentration in the brain homogenate) [1, 3]: significantly higher than in the oral administration
blood level in the oral administration ([2]; oral 10 mg/kg, rats): low as compared with the given dose
bioavailability ([2]; sc, subcutaneous, 1 mg/kg): 144%
bioavailability ([2]; oral, 10 mg/kg): 4.1%
Cmax ([2]; sc, subcutaneous, 1 mg/kg): 135 ng/mL
Tmax ([2]; sc, subcutaneous, 1 mg/kg): 10.2 min
AUC ([2]; sc, subcutaneous, 1 mg/kg): 231 ng·h/mL
Cmax ([2]; intravenous, 0.5 mg/kg): 94.1 ng/mL
Tmax ([2]; intravenous, 0.5 mg/kg): 4.8 min
AUC ([2]; intravenous, 0.5 mg/kg): 80 ng·h/mL
Cmax ([2]; oral, 10 mg/kg): 86.9 ng/mL
Tmax ([2]; oral, 10 mg/kg): 10.2 min
AUC ([2]; oral, 10 mg/kg): 65.4 ng·h/mL

Reference: patent US20100137429A1, “COMPOSITION FOR T[…] TRANSMUCOSAL ADMINISTRATION” (FUJIMOTO CO., LTD., priority 2007, published 2010)
